Results from article PMC11246197 (Journal of medicinal chemistry, 2024).

Test system: SARS-CoV-2 Omicron variant BA.1
Assay type: cell-based
Conditions: read-out: EC50 against SARS-CoV-2 Omicron variant BA.1

CC(C)OC(=O)[C@H](C)N[P@](=O)(OC[C@H]1O[C@@](C#N)(c2ccc3c(N)ncnn23)[C@H](O)[C@@H]1O)Oc1ccccc1 [IsoRDV]
EC50: 540 nM
